Data taken from PubChem BioAssay AID2060498 (Molecular Pharmacology Branch, DTP, NCI, 2025).
“And” between values parts separate entries of the source, which are not always exact repeats. Equal entries are not always repeated.

Test system: 171881-019-R-J1-PDC tumor spheroids, viability
Test: Anticancer human tumor 171881-019-R-J1-PDC patient-derived invasive breast carcinoma cell line growth inhibition [GQUAD]
Settings: spheroids with HUVEC and MSC; for viability, T/C: stronger effect = lower value
From the text: DNA G-quadruplex Stabilizer Agents in Combinations in Complex Spheroids
A high-throughput screen of multi-cell type tumor spheroids was designed to identify active combinations of DNA G-quadruplex stabilizer agents and targeted small molecules. Complex spheroids include a stromal component modeled by human endothelial cells (HUVEC) and fibroblasts modeled by human mesenchymal stem cells (MSCs). The concentration ranges selected for each drug and investigational agent were based upon clinically achievable concentrations if the clinical Cmax of the agent was known.
Compounds. The drugs and investigational agents: pidnarulex (CX-5461; NSC782164), APTO-253 (NSC789042), BRACO-19 (NSC847499), peposertib (NSC802822), ceralasertib (NSC780249), elimusertib (NSC800525), camonsertib (NSC841442), AZD-1390 (NSC803789), olaparib (NSC753686), talazoparib (NSC767125), ART-558 (NSC835418), sotorasib (NSC818433), MRTX-1133 (NSC836407), SN-38 (NSC673596), topotecan (NSC609699), etoposide (NSC141540), doxorubicin (NSC123127), gemcitabine (NSC613327), 5-fluorouracil (NSC19893), paclitaxel (NSC125973), vemurafenib (NSC761431), panobinostat (NSC761190), R-306465 (JNJ-16241199; NSC773264), adavosertib (NSC754352), TP-3654 (NSC805149), carboplatin (NSC241240), KSQ-4279 (NSC840948), and staurosporine (NSC755774) were obtained from the National Cancer Institute (NCI) Developmental Therapeutics Program Chemical Repository (34). The FDA-approved anticancer drug set is available from the NCI Developmental Therapeutics Program. […] The stock solutions were prepared in dimethyl sulfoxide (DMSO, Sigma-Aldrich, St. Louis, MO, cat. D2650) at 800-fold the tested concentration and stored at -70 degrees C prior to their use. All drugs and investigational agents were tested over a range starting from a high concentration at or near the clinical Cmax and decreasing in half-log increments. If the clinical Cmax for an agent had not been determined, the highest concentration tested was 10 microM.
2.3 Cell Culture. All cells were maintained in an incubator at 37 degrees C and 5% CO2 with 95% humidity. The PDC lines were cultured according to standard operating procedures established by the NCI PDMR. All PDCs were thawed and cultured in Matrigel-coated flasks prepared with a working solution of 1X Ham's F-12 nutrient mix, without supplementation (Invitrogen, cat. 11765054), 100 U/mL penicillin-streptomycin (Invitrogen, cat. 15140122), and 2.5% Matrigel (Corning Inc., cat. 354248) for the first three passages. The 857933-349-R-J2-PDC line was cultured in 6C/Colon 1B media, which includes advanced DMEM/F-12 (Thermo Fisher Scientific, cat. 12634028), 10 mM HEPES (Thermo Fisher Scientific, cat. 15630080), 1X GlutaMAX supplement (Thermo Fisher Scientific, cat. 35050061), 0.1 mg/mL primocin (InvivoGen, cat. ant-pm-2), 10% defined fetal bovine serum, heat inactivated (HyClone Laboratories Inc., cat. SH30070.03HI), 50% L-WRN conditioned media (ATCC, cat. CRL-3276), 1.25 mM N-Acetyl-L-cysteine (Sigma-Aldrich, cat. A9165), 10 mM nicotinamide (Sigma-Aldrich, cat. N0636), 1X B-27 supplement (Thermo Fisher Scientific, cat. 17504044), 1X N-2 supplement (Thermo Fisher Scientific, cat. 17502048), 10 microM Y-27632 dihydrochloride (Tocris Bioscience, cat. 1254), and 50 ng/mL human EGF recombinant protein (Thermo Fisher Scientific, cat. PHG0311). The 485176-168-R4-J1-PDC line was cultured in Panc media, which includes all 6C/Colon 1B media components plus 100 ng/mL human FGF-10 (Thermo Fisher Scientific, cat. 100-26), 500 nM SB-431542 (Selleckchem, cat. S1067), and gastrin (Tocris, cat. 3006).
[…]
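Further: spheroids exposed to compounds for 7 days.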
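Wherever viability, T/C is given: 100% = DMSO vehicle control viability.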

| Structure (SMILES) | viability, T/C (compound 0.0316 µM) | viability, T/C (compound 0.1 µM) | viability, T/C (compound 0.316 µM) | viability, T/C (compound 1 µM) | viability, T/C (compound 3.16 µM) | viability, T/C (compound 10 µM) | IC50 (curve of compound) | viability, T/C (compound 0.000999 µM) | viability, T/C (compound 0.00316 µM) | viability, T/C (compound 0.00999 µM) | viability, T/C (compound 0.0999 µM) | IC50 (compound alone, run of 02/26/2024) |
| --- | --- | --- | --- | --- | --- | --- | --- | --- | --- | --- | --- | --- |
| C#Cc1c(F)ccc2cc(O)cc(-c3ncc4c(N5CC6CCC(C5)N6)nc(OCC56CCCN5CC(F)C6)nc4c3F)c12 (stereo not given) | 91.1% and 86.6% and 83.5% | 72.5% and 68.7% and 74.1% | 55.5% and 61.2% and 55.2% | 41.4% and 38% and 36.8% | 29.1% and 29.3% and 26.5% | 24.5% and 6.82% and 10.6% | 478 nM and 552 nM and 475 nM |  |  |  |  |  |
| C=CC(=O)N1CCN(c2nc(=O)n(-c3c(C)ccnc3C(C)C)c3nc(-c4c(O)cccc4F)c(F)cc23)C(C)C1 (stereo not given) | 85.8% and 97% and 88.1% | 94.8% and 102% and 105% | 101% (2×) and 104% | 104% (2×) and 108% | 96.7% and 93.7% and 96.9% | 51.8% and 53.1% and 55.6% | > 10000 nM |  |  |  |  |  |
| C=CCn1c(=O)c2cnc(Nc3ccc(N4CCN(C)CC4)cc3)nc2n1-c1cccc(C(C)(C)O)n1 | 101% and 105% (2×) | 80.9% and 102% and 89.4% | 76.6% and 92% and 76.5% | 35.9% (2×) and 39.2% | 18.3% and 21.7% and 21.2% | 23.2% and 23.1% and 21.7% | 660 nM and 789 nM and 669 nM |  |  |  |  |  |
| CC(=O)O[C@H]1C(=O)[C@@]2(C)[C@H]([C@H](OC(=O)c3ccccc3)[C@]3(O)C[C@H](OC(=O)[C@H](O)[C@@H](NC(=O)c4ccccc4)c4ccccc4)C(C)=C1C3(C)C)[C@]1(OC(C)=O)CO[C@@H]1C[C@@H]2O | 50.5% and 44.8% and 33.4% | 32.6% and 33.4% and 25.7% | 32% and 29.3% and 21.5% | 29.8% and 26.7% and 22.8% | 29.6% and 24.3% and 23.2% | 29.6% (2×) and 24% | < 31.6 nM |  |  |  |  |  |
| CC(C)(O)C1CCC(Nc2ccc3ncc(-c4cccc(C(F)(F)F)c4)n3n2)CC1 (stereo not given) | 94.5% and 97.7% and 83.7% | 103% and 88.9% and 87.9% | 90% and 92.4% and 78.3% | 74.2% and 75.5% and 74.3% | 25.5% and 27.5% and 22.3% | 33.8% and 31.2% and 26.3% | 1870 nM and 1890 nM and 1750 nM |  |  |  |  |  |
| CC(C)n1c(=O)n(C)c2cnc3cc(F)c(-c4ccc(OCCCN5CCCCC5)nc4)cc3c21 | 93.2% and 98.1% and 85.8% | 95.7% and 88.2% and 81.6% | 96.2% and 94.4% and 102% | 74.8% and 82.3% and 78.2% | 55.2% and 38.8% and 51.6% | 20.5% and 11.7% and 18.7% | 3590 nM and 2350 nM and 3270 nM |  |  |  |  |  |
| CC1COCCN1c1cc(-c2ccnn2C)c2ccnc(-c3ccn[nH]3)c2n1 (stereo not given) | 65.6% and 74.5% and 75.8% | 35.5% and 31.4% and 31.2% | 15.8% and 12.9% and 15.2% | 8.71% and 4.99% and 7.86% | 5% and 2.03% | 4.63% and 1.67% and 5.37% | 57.4 nM and 61 nM and 62 nM |  |  |  |  |  |
| CC1COCCN1c1cc(C2(O)CC3CCC(C2)O3)c2cnn(-c3ccn[nH]3)c2n1 (stereo not given) | 52.1% and 55.1% and 56% | 21.3% and 20.7% and 15.9% | 9.11% and 9.51% and 6.18% | 6.21% and 5.84% and 2.3% | 4.07% and 4.22% and 1.52% | 3.07% and 3.7% and 0.82% | 33.8 nM and 37.4 nM and 37.3 nM |  |  |  |  |  |
| CC1COCCN1c1cc(C2(S(C)(=N)=O)CC2)nc(-c2ccnc3[nH]ccc23)n1 (stereo not given) | 106% and 98.7% and 79.5% | 97.3% and 97.8% and 89.9% | 93.4% and 89.1% and 82.5% | 59.2% and 58.9% and 55.1% | 18.7% and 17.7% and 17% | 9.35% and 7.04% and 9.31% | 1290 nM and 1270 nM and 1170 nM |  |  |  |  |  |
| CCCS(=O)(=O)Nc1ccc(F)c(C(=O)c2c[nH]c3ncc(-c4ccc(Cl)cc4)cc23)c1F | 93.6% and 96.9% and 102% | 104% and 92.1% and 101% | 105% and 114% and 98.3% | 113% and 97.5% and 123% | 96.5% and 102% and 108% | 51% and 50.6% and 74.3% | > 10000 nM |  |  |  |  |  |
| CC[C@@]1(O)C(=O)OCc2c1cc1n(c2=O)Cc2cc3c(CN(C)C)c(O)ccc3nc2-1 | 88.4% and 94.7% and 87.2% |  | 35.1% (2×) and 48.3% |  |  |  | 95 nM and 266 nM and 83.1 nM | 84.9% and 109% and 105% | 89.6% and 94.4% and 100% | 96.2% and 103% and 85.5% | 48.2% and 59.4% and 42.4% |  |
| CCc1c2c(nc3ccc(O)cc13)-c1cc3c(c(=O)n1C2)COC(=O)[C@]3(O)CC | 32% and 42.5% and 33.4% |  | 23.4% and 26.1% and 21.4% |  |  |  | 2.46 nM and 8.66 nM and 2.44 nM | 77.2% and 89.1% and 77.4% | 38.9% and 53.4% and 39.7% | 37.3% and 53.9% and 33% | 27.4% and 34.3% and 26% |  |
| CN(C)c1ccc(Nc2c3ccc(NC(=O)CCN4CCCC4)cc3nc3cc(NC(=O)CCN4CCCC4)ccc23)cc1 | 97.6% [middle of 12 runs] | 99.5% [middle of 12 runs] |  | 20% [middle of 12 runs] | 1.98% [middle of 11 runs] | 0.43% [middle of 12 runs] |  |  |  |  |  | 548 nM [middle of 12 runs] |
